Test results from paper PMC3670040, “Structure of Lipid Kinase p110β/p85β Elucidates an Unusual SH2-Domain-Mediated Inhibitory Mechanism” (Molecular Cell, 2011).
Square brackets hold non-standard residues; d marks the D form. Ends that are not written are not given here. pY = N[C@@H](Cc1ccc(OP(=O)(O)O)cc1)C(=O)O

System: p110β/p85β-nicSH2
Experiment: [γ32P]-ATP nitrocellulose-binding assay of PIP3 production
Format: biochemical, mouse
Procedure: or absence of 10 μM PDGF bis-phosphopeptide. Reactions were carried out with 1 μCi [γ32P]-ATP per reaction, with 100 μM ATP and 1 mg/ml total “brain lipids” or 1.5 mM diC8-PIP2/POPS vesicles for 60 min. The vesicle compositions are indicated.
(B) Integrated intensities of the spots using the “brain liposomes” (left panel) or diC8-PIP2/POPS liposomes (Invitrogen) (right panel), quantitated with the ImageQuant software.
The bars represent standard deviations of the mean for two measurements. The hatched bars are for reactions in the presence of PDGF bis-phosphopeptide.
(C) SDS PAGE analysis of the proteins used for the assays in (A and B). Samples of 10 μl of […] protein solutions for each of the reaction were analyzed on a 4-12% NuPAGE Novex Bis-Tris gel in MES running buffer (Invitrogen). The upper band is the p110 subunit and the lower band is the regulatory subunit.
(D) Stereo view of the contacts between the p85β-cSH2 domain and the C-lobe of the kinase domain. The Tyr677-p85β (red) inserts into a hydrophobic groove between the two elbows kα7/kα8 (yellow) and kα11/kα12 (orange). Tyr677-p85β also makes a potential hydrogen bond with Ser1046-p110β (dashed black line).
To determine the effect of receptor tyrosine kinases (RTK) on PI3K activity, the assays were performed in absence or presence of 10 μM pY peptides:
7. Mm-PDGFR (pY2): ESDGG(pY)MDMSKDESID(pY)VPMLDMKGDIKYADIE (residues
10. Hs-PDGFR-pY740+5 position 5 mutated to P: DGG(pY)MDMSP
11. Hs-PDGFR-pY740+5 position 5 mutated to A: DGG(pY)MDMSA
12. Hs-PDGFR-pY740+5 position 5 mutated to S: DGG(pY)MDMSS
13. […]
The reactions were stopped by addition of 10 μl of stop/detection buffer (1X Stop & Detect Buffer B, 4 nM ADP Alexa633 Tracer, 109 μg/ml ADP2 antibody), followed by 1 h equilibration. Fluorescence polarization was measured on a PHERAStar plus HTS microplate reader (BMG Labtech), using a fluorescence polarization module with excitation centered at 633 nm and emission at 650 nm. […]
The PIP3 lipids produced in PI3K in vitro assays as described above were also measured by a mass-spectrometry based assay (Clark et al.). […]

## ESDGG[pY]MDMSKDESID[pY]VPMLDMKGDIKYADIE [pY2, bis-phosphopeptide (PDGFR 735–767, with pY740 and pY751)]
p110β/p85β-nicSH2, 10 μM pY2, 1 mg/ml brain lipids (5% PIP2, 20% PS, 15% PC, 45% PE, 5% sphingomyelin, 10% cholesterol), 100 μM ATP, 60 min
  fold activation by pY2, PIP3 formation, brain lipids: 10 fold
p110β/p85β-nicSH2, 10 μM pY2, 1.5 mM diC8-PIP2/POPS, 100 μM ATP, 60 min
  fold activation by pY2, PIP3 formation, diC8-PIP2/POPS liposomes: 16 fold
Radioactive phosphorylation assay, Figures S2A–S2C
  effect on lipid kinase activity of p110β SH2-containing complexes, PIP3 formation: stimulates lipid kinase activity
